Test [1] deals with TNFα secretion from U937 cells. Nature of the test: TNFα secretion from U937 cells. The test is classed as cell-based, human. To be noted: treatment for 60 hours.
A further test has as its system Toledo cells. As to the kind of experiment: Toledo cell growth assay. Format: cell-based.
Test [2] relates to U937 human histiocytic lymphoma cells. To be noted: cited from earlier work.
Test [3] shares this test system. The conditions noted are these: cited from earlier work. This is another data set of the same source.

Consider `CCC/C=C/C=C/C(=O)O[C@H]1/C(=C/C(=O)OC)C[C@H]2C[C@H]([C@@H](C)O)OC(=O)C[C@H](O)C[C@@H]3C[C@H](OC(C)=O)C(C)(C)[C@](O)(C[C@@H]4C/C(=C/C(=O)OC)C[C@H](/C=C/C(C)(C)[C@]1(O)O2)O4)O3` [bryostatin 1], for which the TNFα secretion result in test [1] was “little effect”. The “growth inhibition of Toledo cells” value with Toledo cells was “induce antiproliferative responses”. Further, the “effect on proliferation of U937 cells” value in test [2] is given as “little response”. The “effect on attachment of U937 cells” value in test [3] was “little response”.

Take `COC(=O)/C=C1\C[C@H]2C[C@]3(O)O[C@H](C[C@@H](O)CC(=O)O[C@@H](C)[C@H](O)C[C@@H]4C[C@@H]5CC(=O)O[C@]5(O4)C(=O)C(C)(C)/C=C/[C@@H](C1)O2)C[C@H](OC(=O)C(C)(C)C)C3(C)C` [Neristatin 1]: in test [2], the “behavior in U937 promyelocytic leukemia cells” value is reported as “bryostatin 1-like behavior”.

Regarding `CCCCCCCCCCCCCC(=O)O[C@@H]1[C@@H](C)[C@@]2(O)[C@@H](C=C(CO)C[C@]3(O)C(=O)C(C)=C[C@@H]23)[C@@H]2C(C)(C)[C@]12OC(C)=O` [PMA, phorbol 12-myristate 13-acetate], in test [1], the TNFα secretion result is “induces secretion in a dose-dependent manner”. In addition, in the test with Toledo cells, the “growth inhibition of Toledo cells” value was “induce antiproliferative responses”. Also, the “effect on proliferation of U937 cells” value in test [2] is given as “inhibits the proliferation”. For the same compound, the “effect on attachment of U937 cells” value in test [3] is “promotes attachment”.

Source of the values: paper PMC5094189 (Journal of the American Chemical Society, 2016).
